Assay results as given in US20250017915A1, “METHOD OF TREATING CANCER ASSOCIATED WITH RAS MUTATION” (The Board of Trustees of the University of Illinois, priority 2021, published 2025).

How the values were obtained:
[1] = tested on: Panc1 cells; assay: Cell growth assay (percent confluence); format: cell-based, human; details: Panc1, 1 μM each drug, until DMSO-treated cells reached 100% confluence
Experimental: (§1) For cell growth assays, a fixed number of serum starved tumor cells were seeded into each well of a 24 well plate to reach 10% confluence, the subsequent percent confluence evaluated every 4 hours until the control group reached 100% confluence. For cell viability assays, 2,000-4,000 cells were seeded into each well of a 96-well plate in serum free DMEM. After 16 hours, media/drug was added and cells cultured for 72 hours. At this time, we added 20 ul of a 5 mg/ml 3-(4,5-Dimethyl-2-thiazolyl)-2,5-diphenyl-2H-tetrazolium bromide (MTT) solution to each well […]. After two hours, media was aspirated and crystals dissolved in DMSO and 570 nm absorbance determined by plate reader.

[2] = tested on: Pdx1-Cre×LSL-Kras^G12D×LSL-TP53^R172H+/− (KPC) mice; assay: KPC mouse model of invasive PDAC, survival and endpoint tissue analysis; format: in vivo; details: XP-524 5 mg/kg daily IP and/or anti-PD-1 200 μg
Excerpt: (§2) Nongenic B6 (Wild Type), P48-Cre×LSL-Kras^G12D (KC), Pdx1-Cre×LSL-Kras^G12D×LSL-TP53^R172H+/− (KPC), and Pdx1-Cre×LSL-Kras^G12D×LSL-TP53^R172H+/+ (KPPC) mice were generated as described previously (24). […] Mice were euthanized at 6 months of age and tissues collected for analysis. […] KPC mice were sacrificed when moribund or showing clear signs of health decline e.g. fur loss, weight loss, or lethargy, or for non-survival studies at the fixed endpoint shown in the number of days after enrollment. For studies involving KPPC mice, animals were enrolled either when developing a 0.5 cm, palpable tumor or at 4 weeks of age. […] For euthanasia, animals were deeply anesthetized with isoflurane until unresponsive to toe tap and/or agonal breathing was observed. Thoracotomy served as the primary method of euthanasia and exsanguination the secondary method. For all mouse studies, mice were age matched within 2 weeks and males and females randomized at a 50:50 ratio.
Using these mice, we first conducted an early intervention study in which mice were allowed to develop overt PDAC for a minimum of 15 weeks, at which point 100% of mice in our colony develop focal PDAC. At this time, mice were then randomized at a 50:50 male to female ratio into one of two treatment groups (N=7/group). […]

[3] = tested on: Pdx1-Cre×LSL-Kras^G12D×LSL-TP53^R172H+/+ (KPPC) mice; assay: KPPC mouse model of extremely aggressive PDAC, late intervention; format: in vivo; details: 5 mg/kg daily IP
Excerpt: as §2
We next conducted a late intervention study using the Pdx1-Cre×LSL-Kras^G12D×LSL-TP53^R172H+/+ (KPPC) model of extremely aggressive PDAC. In our colony, KPPC mice have a median survival of 43 days (N=12) and develop extensive PDAC as early as two weeks of age. We, therefore, enrolled mice as described either when they developed a 0.5 cm tumor or at 4 weeks of age and placed them into one of two treatment groups (N=6/group).

[4] = tested on: Panc1 cells; assay: Cell viability, MTT assay; format: cell-based, human; details: Panc1, increasing concentrations, with or without 1 μM SGC-CBP30, 48 hours
Experimental: as §1
After 48 hours, we examined changes in cell viability via MTT assay.

[5] = tested on: Panc1 cells; assay: RNA sequencing and gene set enrichment analysis; format: cell-based, human; details: Panc1, 1 μM, 24 hours, RNA sequencing
Experimental: After 24 hours RNA was extracted using the RNeasy Plus Mini Kit (Qiagen, Hilden, Germany) per the manufacturer's instructions. Quality control, sequencing, and data analysis were performed by Novogene.

[6] = tested on: BRD4 and EP300/CBP; assay: Immunoprecipitation of BRD4 and EP300/CBP, Panc1; format: cell-based, human; details: Panc1, 1 μM
Experimental: For immunoprecipitation, cell lysates were collected using IP buffer (25 mM Tris-HCl pH 7.5, 150 mM NaCl, 1 mM EDTA, 0.1% NP-40 and 5% glycerol) with a protease and phosphatase inhibitory cocktail (Cell Signaling), and cell extracts were incubated overnight with the respective antibodies followed by incubation with protein A or G agarose beads for 4 h at 4° C. After washing 5-7 times with lysis buffer, immunocomplexes were resolved using SDS-PAGE and visualized by western blot. All antibodies were compared with isotype specific IgG controls to affirm specificity. All experiments were performed in triplicate unless otherwise specified.
(§3) Using these same lysates, we also evaluated the association between BRD4 and EP300/CBP by immunoprecipitation.

[7] = tested on: Panc1 cells; assay: Western blot, Panc1; format: cell-based, human
Experimental: Cell or tissue lysates were lysed in RIPA buffer (Cell Signaling) followed by sonication. Equal amounts of protein (15-50 μg) were mixed with loading dye, boiled for 8 min, separated on a 4-20% denaturing SDS-PAGE gel and transferred to a PVDF membrane. The membrane was blocked in 5% milk/TBS/0.1% Tween for one hour and incubated with antibodies against pRB, pMEK1, MEK1, pERK1/2, ERK1/2, (Cell Signaling, Danvers, MA), H3K27ac (Active Motif, Carlsbad, CA), KRAS (Novus Bio, Saint Charles, MO), BRD4, EP300 (abcam, Cambridge, MA), or GAPDH (Santa Cruz Biotech, Santa Cruz, CA). The membrane was washed with TBS-0.1% Tween and then incubated with HRP conjugated secondary antibody (Cell Signaling) at room temperature for one hour and rewashed. Protein bands were visualized by an enhanced chemiluminescence method (Thermo Fischer, Waltham, MA) and resolved digitally per the manufacturer's specifications.
as §3

Row | Structure (SMILES) | cell growth [1] | median survival post-enrollment [2] [days] | median survival post-enrollment [3] [days] | cell viability [4] | KRAS signaling and cell cycle pathways [5] | co-precipitation of BRD4 and EP300/CBP [6] | histone acetylation (H3K27ac) [7]
1 | COc1ccc(CCc2nc3cc(-c4c(C)noc4C)ccc3n2C[C@H](C)N2CCOCC2)cc1Cl [SGC-CBP30] | marginal effect on cell growth | – | – | – | – | – | –
2 | CCS(=O)(=O)Nc1cc(-c2cn(C)c3c(=O)[nH]ccc23)cc2c1ccn2C(C)(c1ccccn1)c1ccccn1 [XP-524] | – | 108 | 50 | – | – | – | –
3 | Cc1sc2c(c1C)C(c1ccc(Cl)cc1)=N[C@@H](CC(=O)OC(C)(C)C)c1nnc(C)n1-2 [JQ-1] | modest growth suppression | – | – | reduction in cell viability | modest suppression of KRAS and cell cycle pathways | modestly reduced co-precipitation of BRD4 and EP300/CBP | compensatory increase in histone acetylation
